The inhibition is the change of the read-out against control, counted positive when it falls.

The results in this text go back to patent publication US20090118332A1, “Therapeutic Agents - 551” (AstraZeneca AB, priority 2006, published 2009).

T1 sequence (P49327 whole entry): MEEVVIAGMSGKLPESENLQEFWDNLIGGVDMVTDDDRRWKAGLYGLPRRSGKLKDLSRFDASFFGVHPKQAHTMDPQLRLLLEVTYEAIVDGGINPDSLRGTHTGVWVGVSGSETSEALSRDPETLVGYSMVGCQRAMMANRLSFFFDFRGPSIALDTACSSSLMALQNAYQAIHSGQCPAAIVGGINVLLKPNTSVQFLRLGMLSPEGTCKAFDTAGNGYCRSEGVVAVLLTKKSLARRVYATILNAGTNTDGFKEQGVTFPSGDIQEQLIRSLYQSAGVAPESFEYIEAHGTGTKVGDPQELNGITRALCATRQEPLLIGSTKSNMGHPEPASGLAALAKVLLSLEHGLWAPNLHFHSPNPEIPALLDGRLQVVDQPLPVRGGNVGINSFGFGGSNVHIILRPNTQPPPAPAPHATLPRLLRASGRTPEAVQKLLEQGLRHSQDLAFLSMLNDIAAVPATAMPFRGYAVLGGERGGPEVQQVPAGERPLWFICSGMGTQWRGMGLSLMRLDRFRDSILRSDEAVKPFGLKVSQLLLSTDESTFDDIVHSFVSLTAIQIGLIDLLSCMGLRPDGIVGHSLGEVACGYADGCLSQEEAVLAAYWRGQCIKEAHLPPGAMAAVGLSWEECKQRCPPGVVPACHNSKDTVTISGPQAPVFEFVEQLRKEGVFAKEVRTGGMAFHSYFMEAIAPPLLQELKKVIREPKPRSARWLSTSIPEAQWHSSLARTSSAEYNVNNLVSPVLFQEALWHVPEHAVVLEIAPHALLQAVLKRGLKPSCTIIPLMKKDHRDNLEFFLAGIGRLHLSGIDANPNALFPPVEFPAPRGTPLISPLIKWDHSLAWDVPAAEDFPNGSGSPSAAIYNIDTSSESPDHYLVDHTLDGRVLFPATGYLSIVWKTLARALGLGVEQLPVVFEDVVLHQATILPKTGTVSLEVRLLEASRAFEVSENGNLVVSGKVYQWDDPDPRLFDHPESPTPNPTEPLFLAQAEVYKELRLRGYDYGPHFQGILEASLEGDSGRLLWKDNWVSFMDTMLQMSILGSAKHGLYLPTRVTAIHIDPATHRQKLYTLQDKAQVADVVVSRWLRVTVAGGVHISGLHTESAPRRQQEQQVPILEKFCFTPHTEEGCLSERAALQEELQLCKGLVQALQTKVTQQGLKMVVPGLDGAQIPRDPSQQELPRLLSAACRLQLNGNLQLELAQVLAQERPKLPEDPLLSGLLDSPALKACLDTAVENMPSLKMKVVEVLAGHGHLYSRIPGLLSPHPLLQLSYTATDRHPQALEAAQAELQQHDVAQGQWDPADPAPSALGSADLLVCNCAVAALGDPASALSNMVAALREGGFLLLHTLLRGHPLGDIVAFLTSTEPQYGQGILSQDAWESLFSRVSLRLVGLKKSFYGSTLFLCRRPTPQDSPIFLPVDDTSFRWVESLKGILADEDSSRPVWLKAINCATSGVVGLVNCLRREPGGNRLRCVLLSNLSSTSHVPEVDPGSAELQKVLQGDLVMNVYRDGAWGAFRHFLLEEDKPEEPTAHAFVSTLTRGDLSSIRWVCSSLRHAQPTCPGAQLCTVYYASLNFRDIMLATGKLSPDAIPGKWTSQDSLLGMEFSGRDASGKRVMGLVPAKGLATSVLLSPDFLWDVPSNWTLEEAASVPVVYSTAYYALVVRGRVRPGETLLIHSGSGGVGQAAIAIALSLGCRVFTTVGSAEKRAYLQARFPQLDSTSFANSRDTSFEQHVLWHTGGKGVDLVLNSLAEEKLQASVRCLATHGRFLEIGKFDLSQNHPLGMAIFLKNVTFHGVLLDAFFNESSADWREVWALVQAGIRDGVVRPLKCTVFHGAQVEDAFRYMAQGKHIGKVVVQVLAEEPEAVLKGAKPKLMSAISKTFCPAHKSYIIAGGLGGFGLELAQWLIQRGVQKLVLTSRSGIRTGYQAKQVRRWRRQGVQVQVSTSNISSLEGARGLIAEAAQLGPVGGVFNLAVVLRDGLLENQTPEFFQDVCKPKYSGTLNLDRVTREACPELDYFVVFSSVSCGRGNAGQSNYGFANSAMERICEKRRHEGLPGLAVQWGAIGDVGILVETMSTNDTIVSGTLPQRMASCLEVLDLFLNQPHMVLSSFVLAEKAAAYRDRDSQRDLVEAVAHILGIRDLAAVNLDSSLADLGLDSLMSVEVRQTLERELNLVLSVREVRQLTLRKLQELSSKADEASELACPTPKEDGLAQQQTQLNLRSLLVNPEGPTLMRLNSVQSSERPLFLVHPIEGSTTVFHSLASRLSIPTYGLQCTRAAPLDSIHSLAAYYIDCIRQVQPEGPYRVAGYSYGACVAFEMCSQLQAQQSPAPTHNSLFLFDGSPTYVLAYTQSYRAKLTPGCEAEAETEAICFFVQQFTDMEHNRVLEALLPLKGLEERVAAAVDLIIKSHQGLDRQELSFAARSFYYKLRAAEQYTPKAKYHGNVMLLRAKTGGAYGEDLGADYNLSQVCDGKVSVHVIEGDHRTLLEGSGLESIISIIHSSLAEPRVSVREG

The first test concerns the target T1, human Fatty Acid Synthase (Homo sapiens, UniProt P49327).
T1 construct: made in house
The experiment in a line: Human FAS enzyme assay (decrease in NADPH fluorescence). The format is biochemical. Conditions: % inhibition at a concentration of 100 μmolar. The gist of the method:
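In-house human FAS was preincubated with compound and NADPH for 15 min at room temperature in 0.1 M Tris pH 7.5 with EDTA, glutathione and BSA. Malonyl CoA and acetyl CoA (500 μM and 150 μM in the added mix) were then added for 60 min. IC50 came from time-zero-subtracted NADPH fluorescence (340/460 nm).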
As for `Cc1ccc(C(=O)N2CCC(c3ccc(C#N)cc3)CC2)cc1NC(=O)NCc1cn(C)nc1C` [Example 258, 1-[5-[4-(4-cyanophenyl)piperidine-1-carbonyl]-2-methyl-phenyl]-3-[(1,3-dimethylpyrazol-4-yl)methyl]urea], the inhibition at 100 µM is 89%.
As to `Cc1ccc(C(=O)N2CCC(c3ccc(C#N)cc3)CC2)cc1NC(=O)N1CC(NS(=O)(=O)N(C)C)C1` [Example 314, N-[5-[4-(4-cyanophenyl)piperidine-1-carbonyl]-2-methyl-phenyl]-3-(dimethylsulfamoylamino)azetidine-1-carboxamide], the inhibition at 100 µM is 87.4%.
Same read-out and setting: under `Cc1ccc(C(=O)N2CCC(c3ccc(C#N)cc3)CC2)cc1NC(=O)NCC1CCCO1` (centres unmarked) [Example 151, 1-[5-[4-(4-cyanophenyl)piperidine-1-carbonyl]-2-methyl-phenyl]-3-(oxolan-2-ylmethyl)urea] stands 92.1%.
`CCc1ccc(C(=O)N2CCC(c3ccc(C#N)cc3)CC2)cc1NC(=O)NC(C)C` [Example 201, 1-[5-[4-(4-cyanophenyl)piperidine-1-carbonyl]-2-ethyl-phenyl]-3-propan-2-yl-urea]: the inhibition at 100 µM came out at 94%.
Regarding `COC(=O)CNC(=O)Nc1cc(C(=O)N2CCC(c3ccc(C#N)cc3)CC2)ccc1C` [Example 72, Methyl 2-[[5-[4-(4-cyanophenyl)piperidine-1-carbonyl]-2-methyl-phenyl]carbamoylamino]acetate], the inhibition at 100 µM is 80.1%.
Regarding `Cc1ccc(C(=O)N2CCC(c3ccc(C#N)cc3)CC2)cc1NC(=O)NCCC(=O)N1CCOCC1` [Example 127, 1-[5-[4-(4-cyanophenyl)piperidine-1-carbonyl]-2-methyl-phenyl]-3-(3-morpholin-4-yl-3-oxo-propyl)urea], the inhibition at 100 µM was determined as 93%.
With `Cc1ccc(C(=O)N2CCC(c3ccc(C#N)cc3)CC2)cc1NC(=O)NCc1ncccc1C` [Example 250, 3-[5-[4-(4-cyanophenyl)piperidine-1-carbonyl]-2-methyl-phenyl]-1-[(3-methylpyridin-2-yl)methyl]urea], the inhibition at 100 µM was 104%.
Take `Cc1ccc(C(=O)N2CCC(c3ccc(Cl)cc3)CC2)cc1NC(=O)NCc1ccccn1` [Example 355, 1-[5-[4-(4-chlorophenyl)piperidine-1-carbonyl]-2-methyl-phenyl]-3-(pyridin-2-ylmethyl)urea]: the inhibition at 100 µM was determined as 82.2%.
Consider `Cc1ccc(C(=O)N2CCC(c3ccc(C#N)cc3)CC2)cc1NC(=O)NC1CN(S(C)(=O)=O)C1` [Example 302, 1-[5-[4-(4-cyanophenyl)piperidine-1-carbonyl]-2-methyl-phenyl]-3-(1-methylsulfonylazetidin-3-yl)urea], for which the inhibition at 100 µM was 93.9%.
On to `CNC(=O)CCNC(=O)Nc1cc(C(=O)N2CCC(c3ccc(C#N)cc3)CC2)ccc1C` [Example 179, 3-[[5-[4-(4-cyanophenyl)piperidine-1-carbonyl]-2-methyl-phenyl]carbamoylamino]-N-methyl-propanamide], for which the inhibition at 100 µM was found to be 89.2%.
For `Cc1ccc(C(=O)N2CCC(c3ccc(C#N)cc3)CC2)cc1NC(=O)NCCC1CCCN1C` (centres unmarked) [Example 144, 1-[5-[4-(4-cyanophenyl)piperidine-1-carbonyl]-2-methyl-phenyl]-3-[2-(1-methylpyrrolidin-2-yl)ethyl]urea], the inhibition at 100 µM amounted to 81.7%.

Still in this test, the particulars now being: FAS enzyme assay, IC50 from fitted sigmoid curves.
As for `COC(=O)[C@@H](NC(=O)Nc1cc(C(=O)N2CCC(c3ccc(C#N)cc3)CC2)ccc1C)C(C)C` [Methyl (2S)-2-[[5-[4-(4-cyanophenyl)piperidine-1-carbonyl]-2-methylphenyl]carbamoylamino]-3-methylbutanoate], the “IC50, inhibition of human Fatty Acid Synthase” value (“IC50, inhibition” below) is reported as “do not have IC50s in the range of about 0.001 μM to about 30 μM”.
As for `CC(=O)N[C@@H]1CCCC[C@H]1NC(=O)Nc1cc(C(=O)N2CCC(c3ccc(C#N)cc3)CC2)ccc1C` (relative stereo) [N-[(trans)-2-[[5-[4-(4-cyanophenyl)piperidine-1-carbonyl]-2-methylphenyl]carbamoylamino]cyclohexyl]acetamide], the “IC50, inhibition” value is recorded as “do not have IC50s in the range of about 0.001 μM to about 30 μM”.
With `COC(=O)[C@@H](NC(=O)Nc1cc(C(=O)N2CCC(c3ccc(C#N)cc3)CC2)ccc1C)c1ccccc1` [Methyl (2S)-2-[[5-[4-(4-cyanophenyl)piperidine-1-carbonyl]-2-methylphenyl]carbamoylamino]-2-phenylacetate], the “IC50, inhibition” value is “do not have IC50s in the range of about 0.001 μM to about 30 μM”.
